Data set [1] in a line: Human liver microsomes (HLMs) intrinsic clearance assay. Particulars: human, microsomes. The class given is in vitro ADME.
The test system of the next data set is HEL cells. The data set can be described thus: Proliferation assay, HEL control cell line (CellTiter-Glo, 7 days). The class given is cell-based, human. The settings on record: Homo sapiens, HEL, 168 h. The method, boiled down:
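Cells were seeded at line-specific low densities for linear growth, exposed to 3.16-fold serial compound dilutions at 0.1% DMSO, and incubated 7 days at 37 °C, 5% CO2. Viability was read by CellTiter-Glo 2.0 luminescence; IC50 came from one-site fits of % inhibition, normalized between DMSO-treated cells (100%) and a day-0 plate (0%).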
A general note: Cellular ATP, detected with luciferase, serves as a proxy for viable cell number.

Another data set addresses hERG (Homo sapiens (Human), UniProt Q12809). The data set can be described thus: hERG assay 1 (standard), SyncroPatch 384PE. Type of data set: cell-based. Particulars: CHO cells, room temperature, up to 40 uM. The method, boiled down: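 Automated patch clamp on hERG-expressing CHO-K1 cells at room temperature, +60/−40 mV protocol every 15 s. Six-point cumulative concentrations 139 nM to 40 uM (0.33% DMSO final); IC50 from one-site fit of % inhibition. Wells required ≥30 MegaOhm seal, current >0.2 nA, Z prime >0.4.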
In general terms: The hERG channel carries a current that helps repolarise heart muscle cells.

[2] abbreviates: pH 7.4, 1 mg/mL HLM, NADPH, read-out: HLM CLint.

Molecules are shown by their SMILES. Like-named read-outs stand apart in the source and are kept apart here.

Sequence of hERG (Q12809 whole entry): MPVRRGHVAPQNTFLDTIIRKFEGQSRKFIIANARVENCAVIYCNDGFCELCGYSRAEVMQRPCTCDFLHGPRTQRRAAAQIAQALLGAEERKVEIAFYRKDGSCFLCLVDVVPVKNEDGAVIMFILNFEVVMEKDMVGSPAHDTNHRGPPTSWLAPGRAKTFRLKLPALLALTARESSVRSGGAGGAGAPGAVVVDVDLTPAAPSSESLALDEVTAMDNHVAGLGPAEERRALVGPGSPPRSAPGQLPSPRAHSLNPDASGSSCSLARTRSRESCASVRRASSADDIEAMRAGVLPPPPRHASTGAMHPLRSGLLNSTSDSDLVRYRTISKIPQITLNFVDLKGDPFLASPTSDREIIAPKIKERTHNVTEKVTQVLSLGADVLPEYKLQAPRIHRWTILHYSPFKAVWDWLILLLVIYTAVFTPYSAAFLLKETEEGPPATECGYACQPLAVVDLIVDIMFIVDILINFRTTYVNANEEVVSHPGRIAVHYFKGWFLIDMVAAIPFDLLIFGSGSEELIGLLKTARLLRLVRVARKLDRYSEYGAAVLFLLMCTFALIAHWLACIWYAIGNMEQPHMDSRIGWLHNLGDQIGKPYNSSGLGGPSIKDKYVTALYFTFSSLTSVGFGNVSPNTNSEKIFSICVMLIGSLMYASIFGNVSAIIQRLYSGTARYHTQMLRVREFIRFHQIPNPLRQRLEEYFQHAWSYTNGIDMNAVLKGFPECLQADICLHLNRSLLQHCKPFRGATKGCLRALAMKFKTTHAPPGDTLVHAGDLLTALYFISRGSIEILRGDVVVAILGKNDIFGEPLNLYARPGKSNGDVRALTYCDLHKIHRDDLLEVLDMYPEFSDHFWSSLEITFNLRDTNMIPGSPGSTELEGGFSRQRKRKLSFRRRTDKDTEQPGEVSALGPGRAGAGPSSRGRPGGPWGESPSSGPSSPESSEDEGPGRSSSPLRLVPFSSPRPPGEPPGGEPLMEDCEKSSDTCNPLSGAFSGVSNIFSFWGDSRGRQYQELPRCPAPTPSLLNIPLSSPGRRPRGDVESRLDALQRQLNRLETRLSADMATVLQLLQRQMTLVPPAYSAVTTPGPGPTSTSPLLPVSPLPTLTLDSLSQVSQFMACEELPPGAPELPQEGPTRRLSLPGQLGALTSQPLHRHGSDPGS

Molecule `CC(C)N(C(=O)c1cc(F)ccc1-n1cc(C(=O)C2CCN(C(=O)[C@H]3NC[C@@H]4CCC[C@@H]43)CC2)c2ccncc21)C(C)C` [Example 21, 5-Fluoro-N,N-diisopropyl-2-(3-(1-((1S,3αR,6αS)-octahydrocyclopenta[c]pyrrole-1-carbonyl)piperidine-4-carbonyl)-1H-pyrrolo[2,3-c]pyridin-1-yl)benzamide] returned a microsomal CLint at 1 µM in data set [1] (pH 7.4, HLM CLint) of 197 µL/min/mg. Also, the figures for the IC50 with HEL cells and at hERG were above 10 µM and above 40 µM, respectively.

Consider `CC(C)N(C(=O)c1cc(F)ccc1-n1cc(C(=O)C2CCN(C(=O)[C@H]3N[C@H]4C[C@@H]3[C@@H](F)C4)CC2)c2ccncc21)C(C)C` [Example 22, 5-Fluoro-2-(3-(1-((1S,3S,4S,5S)-5-fluoro-2-azabicyclo[2.2.1]heptane-3-carbonyl)piperidine-4-carbonyl)-1H-pyrrolo[2,3-c]pyridin-1-yl)-N,N-diisopropylbenzamide], for which, in data set [1] (pH 7.4, HLM CLint), the microsomal CLint at 1 µM stood at 91 µL/min/mg. Moreover, the results for the IC50 with HEL cells and at hERG were above 10 µM and above 40 µM, respectively.

For `CC(C)N(C(=O)c1cc(F)ccc1-n1cc(C(=O)C2CCN(C(=O)[C@@H]3CCC4(CC4)N3)CC2)c2ccncc21)C(C)C` [Example 24, (S)-2-(3-(1-(4-Azaspiro[2.4]heptane-5-carbonyl)piperidine-4-carbonyl)-1H-pyrrolo[2,3-c]pyridin-1-yl)-5-fluoro-N,N-diisopropylbenzamide], in data set [1] (setting [2]), the microsomal CLint at 1 µM came out at 145 µL/min/mg. The IC50 is above 10 µM in the data set with HEL cells and 38.3 µM against hERG.

With `CC(C)N(C(=O)c1cc(F)ccc1-n1cc(C(=O)C2CCN(C(=O)[C@@H]3CC4(CC4)CN3)CC2)c2ccncc21)C(C)C` [Example 26, (S)-2-(3-(1-(5-Azaspiro[2.4]heptane-6-carbonyl)piperidine-4-carbonyl)-1H-pyrrolo[2,3-c]pyridin-1-yl)-5-fluoro-N,N-diisopropylbenzamide], the microsomal CLint at 1 µM in data set [1] (setting [2]) turned out to be 51 µL/min/mg. Further, the IC50 in the data set with HEL cells is above 10 µM; on hERG, above 40 µM.

As to `CC(C)N(C(=O)c1cc(F)ccc1-n1cc(C(=O)C2CCN(C(=O)[C@@H]3CCC(C)(C)N3)CC2)c2ccncc21)C(C)C` [Example 27, (S)-2-(3-(1-(5,5-Dimethylpyrrolidine-2-carbonyl)piperidine-4-carbonyl)-1H-pyrrolo[2,3-c]pyridin-1-yl)-5-fluoro-N,N-diisopropylbenzamide], in data set [1] (pH 7.4, HLM CLint), the microsomal CLint at 1 µM came to 46 µL/min/mg. Further, the half-maximal inhibitory concentration (IC50) with HEL cells is above 10 µM; against hERG, above 40 µM.

As to `CCN(C(=O)c1cc(F)ccc1-n1cc(C(=O)C2CCN(C(=O)[C@H]3NC[C@@H]4C[C@@H]43)CC2)c2ccncc21)C(C)C` [Example 28, 2-(3-(1-((1S,2S,5R)-3-Azabicyclo[3.1.0]hexane-2-carbonyl)piperidine-4-carbonyl)-1H-pyrrolo[2,3-c]pyridin-1-yl)-N-ethyl-5-fluoro-N-isopropylbenzamide], in data set [1] (pH 7.4, HLM CLint), the microsomal CLint at 1 µM worked out at 41 µL/min/mg. The results for the half-maximal inhibitory concentration (IC50) with HEL cells and on hERG were above 10 µM and above 40 µM, respectively.

`CCN(C(=O)c1cc(F)ccc1-n1cc(C(=O)C2CCN(C(=O)[C@H]3N[C@H]4C[C@@H]3[C@@H](F)C4)CC2)c2ccncc21)C(C)C` [Example 30, N-Ethyl-5-fluoro-2-(3-(1-((1S,3S,4S,5S)-5-fluoro-2-azabicyclo[2.2.1]heptane-3-carbonyl)piperidine-4-carbonyl)-1H-pyrrolo[2,3-c]pyridin-1-yl)-N-isopropylbenzamide] gave a microsomal CLint at 1 µM in data set [1] (pH 7.4, HLM CLint) of 54 µL/min/mg. Also, the figures for the IC50 in the data set with HEL cells and against hERG were above 10 µM and above 40 µM, respectively.

Regarding `CCN(C(=O)c1cc(F)ccc1-n1cc(C(=O)C2CCN(C(=O)[C@H]3N[C@@H]4CC[C@H]3C4)CC2)c2ccncc21)C(C)C` [Example 31, 2-(3-(1-((1R,3S,4S)-2-Azabicyclo[2.2.1]heptane-3-carbonyl)piperidine-4-carbonyl)-1H-pyrrolo[2,3-c]pyridin-1-yl)-N-ethyl-5-fluoro-N-isopropylbenzamide], the microsomal CLint at 1 µM in data set [1] (pH 7.4, HLM CLint) came to 23 µL/min/mg. The IC50 is above 10 µM in the data set with HEL cells and above 40 µM on hERG.

In turn, `C[C@@H]1CCC[C@H](C)N1C(=O)c1cc(F)ccc1-n1cc(C(=O)C2CCN(C(=O)[C@H]3N[C@@H]4CC[C@H]3C4)CC2)c2ccncc21` [Example 33, (1-((1R,3S,4S)-2-Azabicyclo[2.2.1]heptane-3-carbonyl)piperidin-4-yl)(1-(2-((2R,6S)-2,6-dimethylpiperidine-1-carbonyl)-4-fluorophenyl)-1H-pyrrolo[2,3-c]pyridin-3-yl)methanone] yielded a microsomal CLint at 1 µM in data set [1] (pH 7.4, HLM CLint) of 50 µL/min/mg. Also, the values for the IC50 with HEL cells and against hERG were above 10 µM and above 40 µM, respectively.

Molecule `C[C@@H]1COC[C@@H](C)N1C(=O)c1cc(F)ccc1-n1cc(C(=O)C2CCN(C(=O)[C@H]3N[C@@H]4CC[C@H]3C4)CC2)c2ccncc21` [Example 34, (1-((1R,3S,4S)-2-Azabicyclo[2.2.1]heptane-3-carbonyl)piperidin-4-yl)(1-(2-((3R,5R)-3,5-dimethylmorpholine-4-carbonyl)-4-fluorophenyl)-1H-pyrrolo[2,3-c]pyridin-3-yl)methanone] showed a microsomal CLint at 1 µM in data set [1] (pH 7.4, HLM CLint) of 11 µL/min/mg. The IC50 in the data set with HEL cells is above 10 µM; against hERG, above 40 µM.

`CC(C)n1nccc1-c1cc(F)ccc1-n1cc(C(=O)C2CCN(C(=O)[C@H]3N[C@@H]4CC[C@H]3C4)CC2)c2ccncc21` [Example 36, (1-((1R,3S,4S)-2-Azabicyclo[2.2.1]heptane-3-carbonyl)piperidin-4-yl)(1-(4-fluoro-2-(1-isopropyl-1H-pyrazol-5-yl)phenyl)-1H-pyrrolo[2,3-c]pyridin-3-yl)methanone] had a microsomal CLint at 1 µM in data set [1] (pH 7.4, HLM CLint) of 58 µL/min/mg. Further, the IC50 in the data set on HEL cells was above 10 µM; on hERG it was above 40 µM.

On to `CC(C)c1ncncc1-c1cc(F)ccc1-n1cc(C(=O)C2CCN(C(=O)[C@H]3N[C@@H]4CC[C@H]3C4)CC2)c2ccncc21` [Example 37, (1-((1R,3S,4S)-2-Azabicyclo[2.2.1]heptane-3-carbonyl)piperidin-4-yl)(1-(4-fluoro-2-(4-isopropylpyrimidin-5-yl)phenyl)-1H-pyrrolo[2,3-c]pyridin-3-yl)methanone], for which, in data set [1] (pH 7.4, HLM CLint), the microsomal CLint at 1 µM is 52 µL/min/mg. In addition, the IC50 in the data set on HEL cells is above 10 µM; at hERG, above 40 µM.

Molecule `CC(C)c1ncccc1-c1cc(F)ccc1-n1cc(C(=O)C2CCN(C(=O)[C@H]3N[C@@H]4CC[C@H]3C4)CC2)c2ccncc21` [Example 38, (1-((1R,3S,4S)-2-Azabicyclo[2.2.1]heptane-3-carbonyl)piperidin-4-yl)(1-(4-fluoro-2-(2-isopropylpyridin-3-yl)phenyl)-1H-pyrrolo[2,3-c]pyridin-3-yl)methanone] returned a microsomal CLint at 1 µM in data set [1] (pH 7.4, HLM CLint) of 131 µL/min/mg. In addition, the IC50 is above 10 µM in the data set with HEL cells and above 40 µM against hERG.

The molecule `O=C(c1cn(-c2ccc(F)cc2-c2cncnc2C2CC2)c2cnccc12)C1CCN(C(=O)[C@H]2N[C@@H]3CC[C@H]2C3)CC1` [Example 40, (1-((1R,3S,4S)-2-Azabicyclo[2.2.1]heptane-3-carbonyl)piperidin-4-yl)(1-(2-(4-cyclopropylpyrimidin-5-yl)-4-fluorophenyl)-1H-pyrrolo[2,3-c]pyridin-3-yl)methanone] came in with a microsomal CLint at 1 µM in data set [1] (pH 7.4, HLM CLint) of 18 µL/min/mg. Moreover, the results for the concentration for half-maximal inhibition (IC50) in the data set with HEL cells and at hERG were above 10 µM and above 40 µM, respectively.

`CC(C)c1ccncc1-c1cc(F)ccc1-n1cc(C(=O)C2CCN(C(=O)[C@H]3N[C@@H]4CC[C@H]3C4)CC2)c2ccncc21` [Example 41, (1-((1R,3S,4S)-2-Azabicyclo[2.2.1]heptane-3-carbonyl)piperidin-4-yl)(1-(4-fluoro-2-(4-isopropylpyridin-3-yl)phenyl)-1H-pyrrolo[2,3-c]pyridin-3-yl)methanone] showed a microsomal CLint at 1 µM in data set [1] (pH 7.4, HLM CLint) of 180 µL/min/mg. Besides, the IC50 with HEL cells is above 10 µM; against hERG, above 40 µM.

In data set [1] (pH 7.4, HLM CLint), `CC(C)c1ncsc1-c1cc(F)ccc1-n1cc(C(=O)C2CCN(C(=O)[C@H]3N[C@@H]4CC[C@H]3C4)CC2)c2ccncc21.O=CO` [Example 42, (1-((1R,3S,4S)-2-Azabicyclo[2.2.1]heptane-3-carbonyl)piperidin-4-yl)(1-(4-fluoro-2-(4-isopropylthiazol-5-yl)phenyl)-1H-pyrrolo[2,3-c]pyridin-3-yl)methanone 1·formic acid] returned a microsomal CLint at 1 µM of 219 µL/min/mg. For the same molecule, the IC50 with HEL cells is above 10 µM; on hERG it was above 40 µM.

The molecule `CC(C)N(C(=O)c1cc(F)ccc1-n1cc(C(=O)C2CCN(C(=O)[C@H]3N[C@@H]4CC[C@H]3C4)CC2)c2c(F)cncc21)C(C)C.O=CO` [Example 44, 2-(3-(1-((1R,3S,4S)-2-Azabicyclo[2.2.1]heptane-3-carbonyl)piperidine-4-carbonyl)-4-fluoro-1H-pyrrolo[2,3-c]pyridin-1-yl)-5-fluoro-N,N-diisopropylbenzamide 1·formic acid] yielded a microsomal CLint at 1 µM in data set [1] (pH 7.4, HLM CLint) of 17 µL/min/mg. Moreover, the half-maximal inhibitory concentration (IC50) was above 10 µM in the data set with HEL cells and above 40 µM against hERG.

For `CCN(C(=O)c1cc(F)ccc1-n1c(C)c(C(=O)C2CCN(C(=O)[C@H]3N[C@@H]4CC[C@H]3C4)CC2)c2ccncc21)C(C)C` [Example 46, 2-(3-(1-((1R,3S,4S)-2-Azabicyclo[2.2.1]heptane-3-carbonyl)piperidine-4-carbonyl)-2-methyl-1H-pyrrolo[2,3-c]pyridin-1-yl)-N-ethyl-5-fluoro-N-isopropylbenzamide], the microsomal CLint at 1 µM in data set [1] (pH 7.4, HLM CLint) is 50 µL/min/mg. For the same molecule, the results for the IC50 in the data set with HEL cells and against hERG were above 10 µM and above 40 µM, respectively.

In general, IC50 refers to the concentration needed to halve the response being measured. Higher therefore signals weaker potency in that assay.

For the origin of these results see patent publication US20240335431A1, “1-H-PYRROLO[2,3-c]PYRIDINE COMPOUNDS” (Acerta Pharma B.V., priority 2023, published 2024).
